Data reported in patent publication US11572399B2, “Long-acting GIP peptide analogues” (University of Copenhagen, priority 2017, dated 2023).
pIC50: −log10 of the molar value. Like-named read-outs stand apart in the source and are kept apart here. Peptide text beside a SMILES is read from it. * marks the point of attachment. C16 diacid = O=C(O)CCCCCCCCCCCCCCC(=O)*; Palmitoyl = CCCCCCCCCCCCCCCC(=O)*

What was measured:
human GIP receptor [1] = target: T1, human GIP receptor (Homo sapiens, UniProt P48546); experiment: 125I-human GIP competition binding assay, in the presence and absence of 2% HSA; conditions: for Fold change HSA (2%)/Casein (0.1%): IC50 (plus HSA)/IC50 (minus HSA); for Binding (+/−HSA) Fold: fold change +HSA/−HSA; for pIC50: heterologous competition binding, transiently transfected COS-7 cells expressing the human GIP receptor, read-out: Binding;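 on all read-outs here: nonspecific binding taken as radioligand bound to untransfected cells, IC50 obtained from nonlinear regression fits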
T1 construct: host or cells: COS-7, transient transfection (calcium phosphate), cDNA in pCMV-Script
T1 sequence (P48546 22-466): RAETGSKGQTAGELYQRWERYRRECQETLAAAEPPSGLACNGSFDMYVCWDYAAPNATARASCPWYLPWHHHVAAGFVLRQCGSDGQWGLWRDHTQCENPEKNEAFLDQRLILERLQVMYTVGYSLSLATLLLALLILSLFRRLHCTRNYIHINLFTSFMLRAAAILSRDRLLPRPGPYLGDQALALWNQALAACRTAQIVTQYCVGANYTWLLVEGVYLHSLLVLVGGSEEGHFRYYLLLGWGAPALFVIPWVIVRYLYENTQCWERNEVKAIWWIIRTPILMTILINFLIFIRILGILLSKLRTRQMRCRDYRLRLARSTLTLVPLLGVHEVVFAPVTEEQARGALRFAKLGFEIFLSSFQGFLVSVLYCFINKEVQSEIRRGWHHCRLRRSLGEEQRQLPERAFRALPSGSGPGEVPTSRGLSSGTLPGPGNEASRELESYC

human GIP receptor [2] = target: T1, human GIP receptor; experiment: cAMP accumulation assay, agonism (ligand alone); type: cell-based; conditions: Table 1; for Emax: COS-7, intrinsic cAMP activity
human GIP receptor [3] = target: T1, human GIP receptor; experiment: cAMP accumulation assay, antagonism of a GIP-mediated cAMP response (50-80% of max); type: cell-based; conditions: for pIC50: antagonism of GIP-mediated cAMP response, COS-7 cells, read-out: cAMP accumulation IC50; for Fold change of IC50 versus GIP(5-30)NH2: fold change of IC50 from GIP(5-30)NH2; for IC50: transiently transfected COS-7 cells, Table 1 and text, read-out: cAMP antagonism nM (IC50, antagonistic potency)
Protocol: The day after, the cells were washed twice with Hepes buffered saline (HBS) buffer and incubated with HBS and 1 mM 3-isobutyl-1-methylxanthine (IBMX) for 30 min at 37° C. […] The HitHunter™ cAMP XS assay (DiscoveRx) was carried out according to the manufacturer's instructions.

[4] = COS-7 cells, read-out: cAMP agonism nM (EC50)
[5] = binding in 0.1% casein (absence of HSA), log value, read-out: logIC50 0.1% casein (converted)

Compound | Fold change HSA (2%)/Casein (0.1%) (human GIP receptor [1]) | Binding (+/−HSA) Fold (human GIP receptor [1]) | pIC50 (human GIP receptor [1]) | Emax (human GIP receptor [2]; COS-7 cells) [%] | EC50 (human GIP receptor [2]; given as log EC50 (negative sign), read-out: cAMP agonism EC50 (log) (converted)) [nM] | pIC50 (human GIP receptor [3]) | Fold change of IC50 versus GIP(5-30)NH2 (human GIP receptor [3]) | IC50 (human GIP receptor [3]) [nM] | Ki (human GIP receptor [1]; absence of HSA) [nM] | Ki (human GIP receptor [1]; presence of 2% HSA) [nM] | EC50 (human GIP receptor [2]; [4]) [nM] | IC50 (human GIP receptor [1]; [5]) [nM] | Ability to antagonize the GIP-mediated cAMP response (in words) (human GIP receptor [3]) | Affinity compared to GIP(3-30)NH2 (in words) (human GIP receptor [1]) | IC50 (human GIP receptor [1]; binding in presence of 2% HSA, read-out: logIC50 2% HSA (converted)) [nM]
CC[C@H](C)[C@H](NC(=O)[C@H](CO)NC(=O)[C@H](Cc1ccc(O)cc1)NC(=O)[C@H](CC(=O)O)NC(=O)[C@H](CO)NC(=O)[C@@H](NC(=O)[C@H](Cc1ccccc1)NC(=O)[C@@H](N)[C@@H](C)O)[C@@H](C)CC)C(=O)N[C@@H](C)C(=O)N[C@@H](CCSC)C(=O)N[C@@H](CC(=O)O)C(=O)N[C@@H](CCCCN)C(=O)N[C@H](C(=O)N[C@@H](Cc1c[nH]cn1)C(=O)N[C@@H](CCC(N)=O)C(=O)N[C@@H](CCC(N)=O)C(=O)N[C@@H](CC(=O)O)C(=O)N[C@@H](CCCCNC(=O)CCCCCCCCCCCCCCC(=O)O)C(=O)N[C@H](C(=O)N[C@@H](CC(N)=O)C(=O)N[C@@H](Cc1c[nH]c2ccccc12)C(=O)N[C@@H](CC(C)C)C(=O)N[C@@H](CC(C)C)C(=O)N[C@@H](C)C(=O)N[C@@H](CCC(N)=O)C(=O)N[C@@H](CCCCN)C(N)=O)C(C)C)[C@@H](C)CC [AT182, [hGIP(5-30)NH2[F22K]-C16diacid/22]] (H-TFISDYSIAMDKIHQQDK(C16 diacid)VNWLLAQK-NH2; N-terminus assumed) | 3.0 | 1.4 | 6.02 | 13 | 1000 | 6.22 | 21.9 | 634 |  |  |  |  |  |  | 
CC[C@H](C)[C@H](NC(=O)[C@H](CO)NC(=O)[C@H](Cc1ccc(O)cc1)NC(=O)[C@H](CC(=O)O)NC(=O)[C@H](CO)NC(=O)[C@@H](NC(=O)[C@H](Cc1ccccc1)NC(=O)[C@@H](N)[C@@H](C)O)[C@@H](C)CC)C(=O)N[C@@H](C)C(=O)N[C@@H](CCSC)C(=O)N[C@@H](CC(=O)O)C(=O)N[C@@H](CCCCN)C(=O)N[C@H](C(=O)N[C@@H](CCCCNC(=O)CCCCCCCCCCCCCCC(=O)O)C(=O)N[C@@H](CCC(N)=O)C(=O)N[C@@H](CCC(N)=O)C(=O)N[C@@H](CC(=O)O)C(=O)N[C@@H](Cc1ccccc1)C(=O)N[C@H](C(=O)N[C@@H](CC(N)=O)C(=O)N[C@@H](Cc1c[nH]c2ccccc12)C(=O)N[C@@H](CC(C)C)C(=O)N[C@@H](CC(C)C)C(=O)N[C@@H](C)C(=O)N[C@@H](CCC(N)=O)C(=O)N[C@@H](CCCCN)C(N)=O)C(C)C)[C@@H](C)CC [AT156, [hGIP(5-30)NH2[H18K]-C16diacid/18]] (H-TFISDYSIAMDKIK(C16 diacid)QQDFVNWLLAQK-NH2; N-terminus assumed) |  | 5.8 |  | 12 |  | 7.62 | 0.9 | 12 | 5 | 29 | 2 |  |  |  | 
CCCCCCCCCCCCCCCC(=O)N[C@H](C(=O)N[C@@H](Cc1ccccc1)C(=O)N[C@H](C(=O)N[C@@H](CO)C(=O)N[C@@H](CC(=O)O)C(=O)N[C@@H](Cc1ccc(O)cc1)C(=O)N[C@@H](CO)C(=O)N[C@H](C(=O)N[C@@H](C)C(=O)N[C@@H](CCSC)C(=O)N[C@@H](CC(=O)O)C(=O)N[C@@H](CCCNC(=N)N)C(=O)N[C@H](C(=O)N[C@@H](CCCCN)C(=O)N[C@@H](CCC(N)=O)C(=O)N[C@@H](CCC(N)=O)C(=O)N[C@@H](CC(=O)O)C(=O)N[C@@H](Cc1ccccc1)C(=O)N[C@H](C(=O)N[C@@H](CC(N)=O)C(=O)N[C@@H](Cc1c[nH]c2ccccc12)C(=O)N[C@@H](CC(C)C)C(=O)N[C@@H](CC(C)C)C(=O)N[C@@H](C)C(=O)N[C@@H](CCC(N)=O)C(=O)N[C@@H](CCCNC(=N)N)C(N)=O)C(C)C)[C@@H](C)CC)[C@@H](C)CC)[C@@H](C)CC)[C@@H](C)O [AT133, [hGIP(5-30)NH2[K16R; H18K; K30R]-C16/5]] (Palmitoyl-TFISDYSIAMDRIKQQDFVNWLLAQR-NH2) | 1.3 |  | 5.76 | 0 |  |  |  |  |  |  |  | 1580 | failed to antagonize |  | 
CCCCCCCCCCCCCCCC(=O)NCCCC[C@H](NC(=O)[C@@H](NC(=O)[C@H](CCCNC(=N)N)NC(=O)[C@H](CC(=O)O)NC(=O)[C@H](CCSC)NC(=O)[C@H](C)NC(=O)[C@@H](NC(=O)[C@H](CO)NC(=O)[C@H](Cc1ccc(O)cc1)NC(=O)[C@H](CC(=O)O)NC(=O)[C@H](CO)NC(=O)[C@@H](NC(=O)[C@H](Cc1ccccc1)NC(=O)[C@@H](N)[C@@H](C)O)[C@@H](C)CC)[C@@H](C)CC)[C@@H](C)CC)C(=O)N[C@@H](CCC(N)=O)C(=O)N[C@@H](CCC(N)=O)C(=O)N[C@@H](CC(=O)O)C(=O)N[C@@H](Cc1ccccc1)C(=O)N[C@H](C(=O)N[C@@H](CC(N)=O)C(=O)N[C@@H](Cc1c[nH]c2ccccc12)C(=O)N[C@@H](CC(C)C)C(=O)N[C@@H](CC(C)C)C(=O)N[C@@H](C)C(=O)N[C@@H](CCC(N)=O)C(=O)N[C@@H](CCCNC(=N)N)C(N)=O)C(C)C [AT134, [hGIP(5-30)NH2[K16R; H18K; K30R]-16/18]] (H-TFISDYSIAMDRIK(Palmitoyl)QQDFVNWLLAQR-NH2; N-terminus assumed) | 5.5 |  | 6.05 | 11 |  |  |  | 93 |  |  | 35 | 794 |  |  | 
CCCCCCCCCCCCCC(=O)N[C@H](C(=O)N[C@@H](Cc1ccccc1)C(=O)N[C@H](C(=O)N[C@@H](CO)C(=O)N[C@@H](CC(=O)O)C(=O)N[C@@H](Cc1ccc(O)cc1)C(=O)N[C@@H](CO)C(=O)N[C@H](C(=O)N[C@@H](C)C(=O)N[C@@H](CCSC)C(=O)N[C@@H](CC(=O)O)C(=O)N[C@@H](CCCCN)C(=O)N[C@H](C(=O)N[C@@H](Cc1c[nH]cn1)C(=O)N[C@@H](CCC(N)=O)C(=O)N[C@@H](CCC(N)=O)C(=O)N[C@@H](CC(=O)O)C(=O)N[C@@H](Cc1ccccc1)C(=O)N[C@H](C(=O)N[C@@H](CC(N)=O)C(=O)N[C@@H](Cc1c[nH]c2ccccc12)C(=O)N[C@@H](CC(C)C)C(=O)N[C@@H](CC(C)C)C(=O)N[C@@H](C)C(=O)N[C@@H](CCC(N)=O)C(=O)N[C@@H](CCCCN)C(N)=O)C(C)C)[C@@H](C)CC)[C@@H](C)CC)[C@@H](C)CC)[C@@H](C)O [AT121, [hGIP(5-30)NH2—C14/5]] | 5.7 |  |  | 0 |  |  |  | 54 |  |  |  | 158 | high potent antagonists | affinities in the same range as GIP(3-30)NH2 | 
CC[C@H](C)[C@H](NC(=O)[C@H](CO)NC(=O)[C@H](Cc1ccc(O)cc1)NC(=O)[C@H](CC(=O)O)NC(=O)[C@H](CO)NC(=O)[C@@H](NC(=O)[C@H](Cc1ccccc1)NC(=O)[C@@H](N)[C@@H](C)O)[C@@H](C)CC)C(=O)N[C@@H](C)C(=O)N[C@@H](CCSC)C(=O)N[C@@H](CC(=O)O)C(=O)N[C@@H](CCCCNC(=O)CCCCCCCCCCCCCCC(=O)O)C(=O)N[C@H](C(=O)N[C@@H](Cc1c[nH]cn1)C(=O)N[C@@H](CCC(N)=O)C(=O)N[C@@H](CCC(N)=O)C(=O)N[C@@H](CC(=O)O)C(=O)N[C@@H](Cc1ccccc1)C(=O)N[C@H](C(=O)N[C@@H](CC(N)=O)C(=O)N[C@@H](Cc1c[nH]c2ccccc12)C(=O)N[C@@H](CC(C)C)C(=O)N[C@@H](CC(C)C)C(=O)N[C@@H](C)C(=O)N[C@@H](CCC(N)=O)C(=O)N[C@@H](CCCCN)C(N)=O)C(C)C)[C@@H](C)CC [AT140, [hGIP(5-30)NH2—C16diacid/16]] | 1.5 | 1.5 | 5.67 | 0 |  |  | 7.4 | 205 | 2160 |  |  | 2000 |  |  | 3280
CC[C@H](C)[C@H](NC(=O)[C@H](CCCCN)NC(=O)[C@H](CC(=O)O)NC(=O)[C@H](CCSC)NC(=O)[C@H](C)NC(=O)[C@H](CCCCNC(=O)CCCCCCCCCCCCCCC(=O)O)NC(=O)[C@H](CO)NC(=O)[C@H](Cc1ccc(O)cc1)NC(=O)[C@H](CC(=O)O)NC(=O)[C@H](CO)NC(=O)[C@@H](NC(=O)[C@H](Cc1ccccc1)NC(=O)[C@@H](N)[C@@H](C)O)[C@@H](C)CC)C(=O)N[C@@H](Cc1c[nH]cn1)C(=O)N[C@@H](CCC(N)=O)C(=O)N[C@@H](CCC(N)=O)C(=O)N[C@@H](CC(=O)O)C(=O)N[C@@H](Cc1ccccc1)C(=O)N[C@H](C(=O)N[C@@H](CC(N)=O)C(=O)N[C@@H](Cc1c[nH]c2ccccc12)C(=O)N[C@@H](CC(C)C)C(=O)N[C@@H](CC(C)C)C(=O)N[C@@H](C)C(=O)N[C@@H](CCC(N)=O)C(=O)N[C@@H](CCCCN)C(N)=O)C(C)C [AT174, [hGIP(5-30)NH2[I12K]-C16diacid/12]] (H-TFISDYSK(C16 diacid)AMDKIHQQDFVNWLLAQK-NH2; N-terminus assumed) | 3.5 | 6.1 | 7.10 | 0 |  |  | 0.9 |  |  |  |  | 79.4 | highest antagonistic potencies |  | 
